# Data as given in US20240132525A1, “BORON […], CO[…], METHODS AND USES THEREOF” (priority 2022, published 2024).
# Where a name gives a salt, the structure may show the parent alone. Read-outs that look alike come from different tables or passages of the source.
# Assays:
# JAK2 = JAK2 (Homo sapiens (Human), UniProt O60674); assay: Biochemical kinase assay (33P-ATP filter-binding), JAK2; conditions: read-out: IC50 JAK2
# Text: (§1) Biochemical Kinase Assay Protocol (JAK)
# (§2) Reaction Procedure: • 1. […] Detected kinase activity by filter-binding method.
# JAK1 = JAK1 (Homo sapiens (Human), UniProt P23458); assay: Biochemical kinase assay (33P-ATP filter-binding), JAK1; conditions: read-out: IC50 JAK1
# Text: as §1, §2
# [1] = Dog LM (liver microsome) assay; type: in vitro ADME; conditions: Table 3a; predicted clearance as percent of liver blood flow, 1 μM, 1 mg/ml microsomal protein
# Protocol: Dog LM (Liver Microsome) Assay
# The metabolic degradation of the test compound is assayed at 37° C. with pooled liver microsomes from dogs (Beagle). The final incubation volume of 100 μl per time point contains TRIS buffer pH 7.6 at RT (0.1 M), magnesium chloride (5 mM), microsomal protein (1 mg/ml) and the test compound at a final concentration of 1 μM. Following a short preincubation period at 37° C., the reactions were initiated by addition of beta-nicotinamide adenine dinucleotide phosphate, reduced form (NADPH, 1 mM) and terminated by transferring an aliquot into solvent after different time points. Additionally, the NADPH-independent degradation was monitored in incubations without NADPH, terminated at the last time point. The [%] remaining test compound after NADPH independent incubation is reflected by the parameter c (control) (metabolic stability). The quenched incubations are pelleted by centrifugation (10000 g, 5 min). An aliquot of the supernatant is assayed by LC-MS/MS for the amount of parent compound. The half-life (t½ INVITRO) is determined by the slope of the semilogarithmic plot of the concentration-time profile. The intrinsic clearance (CL_[…]) is calculated by considering the amount of protein in the incubation: CL_[…] [μl/min/mg protein]=(Ln 2/(half-life [min]*protein content [mg/ml]))*1000. For better across species comparison the predicted clearance is expressed as percent of the liver blood flow [% QH] in the individual species. In general, high stability (corresponding to low % QH) of the compounds across species is desired.
# Sequence of JAK2 (O60674 whole entry, species assumed): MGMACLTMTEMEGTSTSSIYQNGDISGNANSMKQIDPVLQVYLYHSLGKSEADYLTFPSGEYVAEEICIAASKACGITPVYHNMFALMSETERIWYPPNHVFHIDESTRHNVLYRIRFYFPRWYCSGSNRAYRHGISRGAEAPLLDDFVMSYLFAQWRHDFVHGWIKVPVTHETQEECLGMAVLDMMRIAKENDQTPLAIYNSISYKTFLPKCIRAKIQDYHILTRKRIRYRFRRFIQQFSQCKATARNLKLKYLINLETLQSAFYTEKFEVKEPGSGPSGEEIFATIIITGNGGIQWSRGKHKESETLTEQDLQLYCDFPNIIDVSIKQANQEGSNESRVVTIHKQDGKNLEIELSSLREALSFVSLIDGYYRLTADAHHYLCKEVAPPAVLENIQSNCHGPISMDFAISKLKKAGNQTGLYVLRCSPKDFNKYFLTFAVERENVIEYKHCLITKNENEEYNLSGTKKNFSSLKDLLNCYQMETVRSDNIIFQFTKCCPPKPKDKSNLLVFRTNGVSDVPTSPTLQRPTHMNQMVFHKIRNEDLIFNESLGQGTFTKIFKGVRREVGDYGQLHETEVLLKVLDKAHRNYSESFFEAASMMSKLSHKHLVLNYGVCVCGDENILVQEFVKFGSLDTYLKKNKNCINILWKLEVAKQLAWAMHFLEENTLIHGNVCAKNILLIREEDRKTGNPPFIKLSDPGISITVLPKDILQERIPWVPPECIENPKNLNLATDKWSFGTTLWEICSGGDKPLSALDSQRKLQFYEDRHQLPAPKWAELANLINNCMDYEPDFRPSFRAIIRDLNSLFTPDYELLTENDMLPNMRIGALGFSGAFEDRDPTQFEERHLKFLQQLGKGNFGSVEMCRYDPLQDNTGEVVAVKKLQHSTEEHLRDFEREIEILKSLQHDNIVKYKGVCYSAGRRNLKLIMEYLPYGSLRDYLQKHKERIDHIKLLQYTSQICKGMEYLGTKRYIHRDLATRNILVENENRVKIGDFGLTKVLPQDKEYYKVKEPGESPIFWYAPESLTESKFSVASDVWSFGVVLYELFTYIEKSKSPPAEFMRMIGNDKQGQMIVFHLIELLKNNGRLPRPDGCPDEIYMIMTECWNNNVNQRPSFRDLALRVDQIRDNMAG
# Sequence of JAK1 (P23458 whole entry, species assumed): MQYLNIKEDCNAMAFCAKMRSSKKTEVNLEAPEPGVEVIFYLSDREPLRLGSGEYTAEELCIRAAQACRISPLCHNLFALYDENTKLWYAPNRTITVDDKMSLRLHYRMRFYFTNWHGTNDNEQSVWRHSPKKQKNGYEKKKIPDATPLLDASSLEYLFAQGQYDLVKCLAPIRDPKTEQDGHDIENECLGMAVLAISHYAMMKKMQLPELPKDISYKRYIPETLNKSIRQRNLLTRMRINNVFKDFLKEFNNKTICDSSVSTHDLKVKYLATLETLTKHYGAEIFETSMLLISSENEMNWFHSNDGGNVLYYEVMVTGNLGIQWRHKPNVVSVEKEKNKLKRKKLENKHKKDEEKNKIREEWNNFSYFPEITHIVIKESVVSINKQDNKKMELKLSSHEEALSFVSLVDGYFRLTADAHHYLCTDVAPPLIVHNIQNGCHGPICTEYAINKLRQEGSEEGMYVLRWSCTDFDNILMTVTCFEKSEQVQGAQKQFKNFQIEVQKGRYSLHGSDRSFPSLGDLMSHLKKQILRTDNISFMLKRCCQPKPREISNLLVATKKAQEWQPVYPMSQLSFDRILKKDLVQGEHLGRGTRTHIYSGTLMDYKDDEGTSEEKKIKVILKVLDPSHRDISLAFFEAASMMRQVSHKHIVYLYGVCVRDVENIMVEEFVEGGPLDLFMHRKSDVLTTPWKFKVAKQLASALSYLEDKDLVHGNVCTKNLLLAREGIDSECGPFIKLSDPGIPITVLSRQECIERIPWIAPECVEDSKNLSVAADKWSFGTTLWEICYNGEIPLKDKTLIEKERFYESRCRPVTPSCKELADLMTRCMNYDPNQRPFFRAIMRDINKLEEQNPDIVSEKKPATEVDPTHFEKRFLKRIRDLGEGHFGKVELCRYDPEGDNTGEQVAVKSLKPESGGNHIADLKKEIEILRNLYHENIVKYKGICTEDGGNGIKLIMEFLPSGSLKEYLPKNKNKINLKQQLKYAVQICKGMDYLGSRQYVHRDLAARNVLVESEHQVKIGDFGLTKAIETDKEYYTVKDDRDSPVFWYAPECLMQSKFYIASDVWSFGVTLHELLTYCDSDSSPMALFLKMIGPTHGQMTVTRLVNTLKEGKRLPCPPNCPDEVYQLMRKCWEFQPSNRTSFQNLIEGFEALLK
SMILES,IC50 (JAK2; Table 3a),IC50 (JAK1; Table 3a),Dog LM QH [1],"IC50 (JAK2; Table 3b, comparator compounds)","IC50 (JAK1; Table 3b, comparator compounds)"
"Cc1cnc(Nc2cc3c4c(c2)OCCOB4OC3)nc1N[C@@H]1CCC[C@H]1C#N (relative stereo) [Example 004, (trans)-2-((2-((7,8-dihydro-2H-1,6,9-trioxa-9a-borabenzo [cd]azulen-4-yl)amino)-5-methylpyrimidin-4-yl)amino)cyclopentane-1-carbonitrile]",49.7 nM,1.6 nM,–,–,–
"Cc1cnc(Nc2ccc3c(c2)C=CB(O)O3)nc1N[C@@H]1CCC[C@H]1C#N (relative stereo) [Example 007, (trans)-2-((2-((2-hydroxy-2H-benzo[e][1,2]oxaborinin-6-yl)amino)-5-methylpyrimidin-4-yl)amino)cyclopentane-1-carbonitrile]",52.6 nM,5.3 nM,–,–,–
"Cc1cnc(Nc2cc(C)c3c(c2)COB3O)nc1N[C@@H]1CCCC[C@H]1C#N (relative stereo) [Example 009, (trans)-2-((2-((1-hydroxy-7-methyl-1,3-dihydrobenzo[c][1,2]oxaborol-5-yl)amino)-5-methylpyrimidin-4-yl)amino)cyclohexane-1-carbonitrile]",13.8 nM,1.1 nM,<19.9%,–,–
"Cc1cnc(Nc2ccc3c(c2)C(C)(C)OB3O)nc1N[C@@H]1CCCC[C@H]1C#N (relative stereo) [Example 014, (trans)-2-[[2-[(1-hydroxy-3,3-dimethyl-2,1-benzoxaborol-5-yl)amino]-5-methylpyrimidin-4-yl]amino]cyclohexanecarbonitrile hydrochloride]",6.3 nM,1.4 nM,48.7%,–,–
"Cc1cnc(Nc2ccc3c(c2)C=CB(O)O3)nc1N[C@@H]1CCCC[C@H]1C#N (relative stereo) [Example 015, (trans)-2-[[2-[(2-hydroxy-1,2-benzoxaborinin-6-yl)amino]-5-methyl-pyrimidin-4-yl]amino]cyclohexanecarbonitrile]",103 nM,9 nM,–,–,–
"CC1=Cc2cc(Nc3ncc(C)c(N[C@@H]4CCCC[C@H]4C#N)n3)ccc2OB1O (relative stereo) [Example 016, (trans)-2-((2-((2-hydroxy-3-methyl-2H-benzo[e][1,2]oxaborinin-6-yl)amino)-5-methylpyrimidin-4-yl)amino)cyclohexane-1-carbonitrile]",17.5 nM,2.5 nM,70.2%,–,–
"Cc1cnc(Nc2cc(C#N)c3c(c2)COB3O)nc1N[C@@H]1CCC[C@H]1C#N (relative stereo) [Example 018, 5-((4-(((trans)-2-cyanocyclopentyl)amino)-5-methylpyrimidin-2-yl)amino)-1-hydroxy-1,3-dihydrobenzo[c][1,2]oxaborole-7-carbonitrile]",10.4 nM,0.5 nM,<19.9%,–,–
"N#C[C@@H]1CCCC[C@H]1Nc1nc(Nc2cc(Cl)c3c(c2)COB3O)ncc1Cl (relative stereo) [Example 019, (trans)-2-((5-chloro-2-((7-chloro-1-hydroxy-1,3-dihydrobenzo[c][1,2]oxaborol-5-yl)amino)pyrimidin-4-yl)amino)cyclohexane-1-carbonitrile]",3.2 nM,0.2 nM,–,–,–
"N#C[C@@H]1CCCC[C@H]1Nc1nc(Nc2cc(Cl)c3c(c2)COB3O)ncc1F (relative stereo) [Example 020, (trans)-2-[[2-[(7-chloro-1-hydroxy-3H-2,1-benzoxaborol-5-yl)amino]-5 fluoropyrimidin-4-yl]amino]cyclohexanecarbonitrile]",50.7 nM,1.4 nM,–,–,–
"N#C[C@@H]1CCCC[C@H]1Nc1nc(Nc2cc(Cl)c3c(c2)COB3O)ncc1C(F)(F)F (relative stereo) [Example 021, (trans)-2-((2-((7-chloro-1-hydroxy-1,3-dihydrobenzo[c][1,2]oxaborol-5-yl)amino)-5-(trifluoromethyl)pyrimidin-4-yl)amino)cyclohexanecarbonitrile]",3.2 nM,2.7 nM,–,–,–
"N#C[C@@H]1CCC[C@H]1Nc1nc(Nc2cc(Cl)c3c(c2)COB3O)ncc1C(F)(F)F (relative stereo) [Example 022, (trans)-2-[[2-[(7-chloro-1-hydroxy-3H-2,1-benzoxaborol-5-yl)amino]-5-(trifluoromethyl)pyrimidin-4-yl]amino]cyclopentanecarbonitrile]",7.5 nM,3.3 nM,–,–,–
"N#C[C@@H]1CCCC[C@H]1Nc1nc(Nc2cc(F)c3c(c2)COB3O)ncc1Cl (relative stereo) [Example 023, (trans)-2-((5-chloro-2-((7 fluoro-1-hydroxy-1,3-dihydrobenzo[c][1,2]oxaborol-5-yl)amino)pyrimidin-4-yl)amino)cyclohexane-1-carbonitrile]",0.6 nM,0.2 nM,–,–,–
"Cc1cnc(Nc2cc3c(c(C4CC4)c2)B(O)OC3)nc1N[C@@H]1COCC[C@H]1C#N (relative stereo) [Example 025, (trans)-3-[[2-[(7-cyclopropyl-1-hydroxy-3H-2,1-benzoxaborol-5-yl)amino]-5-methyl-pyrimidin-4-yl]amino]tetrahydropyran-4-carbonitrile]",24.2 nM,0.4 nM,<19.9%,–,–
"Cc1cnc(Nc2cc(C#N)c3c(c2)COB3O)nc1N[C@@H]1COCC[C@H]1C#N (relative stereo) [Example 045, 5-((4-(((trans)-4-cyanotetrahydro-2H-pyran-3-yl)amino)-5-methylpyrimidin-2-yl)amino)-1-hydroxy-1,3-dihydrobenzo[c][1,2]oxaborole-7-carbonitrile]",10.6 nM,0.5 nM,–,–,–
"N#C[C@@H]1CCOC[C@H]1Nc1nc(Nc2cc(Cl)c3c(c2)COB3O)ncc1F (relative stereo) [Example 046, (trans)-3-((2-((7-chloro-1-hydroxy-1,3-dihydrobenzo[c][1,2]oxaborol-5-yl)amino)-5-fluoropyrimidin-4-yl)amino) tetrahydro-2H-pyran-4-carbonitrile]",186 nM,3.4 nM,–,–,–
"N#C[C@@H]1CCOC[C@H]1Nc1nc(Nc2ccc3c(c2)COB3O)ncc1Cl (relative stereo) [Example 047, (trans)-3-((5-chloro-2-((1-hydroxy-1,3-dihydrobenzo[c][1,2]oxaborol-5-yl)amino)pyrimidin-4-yl)amino)tetrahydro-2H-pyran-4-carbonitrile]",7.6 nM,0.34 nM,–,–,–
"N#C[C@@H]1CCOC[C@H]1Nc1nc(Nc2cc(Cl)c3c(c2)COB3O)ncc1Cl (relative stereo) [Example 048, (trans)-3-[[5-chloro-2-[(7-chloro-1-hydroxy-3H-2,1-benzoxaborol-5-yl)amino]pyrimidin-4-yl]amino]tetrahydropyran-4-carbonitrile]",15.6 nM,0.6 nM,–,–,–
"Cc1cnc(Nc2cc(Cl)c3c(c2)COB3O)nc1NC1CCCC[C@@H]1C#N (single isomer, unassigned) [Example 010b, (trans)-2-[[2-[(7-chloro-1-hydroxy-3H-2,1-benzoxaborol-5-yl)amino]-5-methyl-pyrimidin-4-yl]amino]cyclohexanecarbonitrile]",–,–,<19.9%,–,–
"Cc1cnc(Nc2cc(Cl)c3c(c2)COB3O)nc1N[C@H]1CCCC[C@@H]1C#N (single isomer, unassigned) [Example 010b, (trans)-2-[[2-[(7-chloro-1-hydroxy-3H-2,1-benzoxaborol-5-yl)amino]-5-methyl-pyrimidin-4-yl]amino]cyclohexanecarbonitrile]",811 nM,22.3 nM,–,–,–
"Cc1cnc(Nc2cc(Cl)c3c(c2)COB3O)nc1N[C@@H]1COCC[C@H]1C#N (single isomer, unassigned) [Example 031a, (trans)-3-((2-((7-chloro-1-hydroxy-1,3-dihydrobenzo[c][1,2]oxaborol-5-yl)amino)-5-methylpyrimidin-4-yl)amino)tetrahydro-2H-pyran-4-carbonitrile]",–,–,<19.9%,–,–
"Cc1cnc(Nc2cc3c4c(c2)OCCOB4OC3)nc1NC1CCCCC1C#N (stereo not drawn) [Example 013, (trans)-2-((2-((7,8-dihydro-2H-1,6,9-trioxa-9a-borabenzo[c,d]azulen-4-yl)amino)-5-methylpyrimidin-4-yl)amino)cyclohexane-1-carbonitrile]",101 nM,2.6 nM,–,–,–
"Cc1cc(Nc2ncc(Cl)c(NC3CCCCC3C#N)n2)cc2c1B(O)OC2 (stereo not drawn) [Example 024, 2-[[5-chloro-2-[(1-hydroxy-7-methyl-3H-2,1-benzoxaborol-5-yl)amino]pyrimidin-4-yl]amino]cyclohexanecarbonitrile]",11.2 nM,5.9 nM,–,–,–
"Cc1cnc(Nc2ccc3c(c2)C(C)OB3O)nc1NC1COCCC1C#N (stereo not drawn) [Example 028, (trans)-3-[[2-[(1-hydroxy-3-methyl-3H-2,1-benzoxaborol-5-yl)amino]-5-methyl-pyrimidin-4-yl]amino]tetrahydropyran-4-carbonitrile]",3.5 nM,0.5 nM,–,–,–
OB1OCc2cc(Nc3ncc(F)c(NC4CCCC4)n3)ccc21 [Example C013],–,–,–,705 nM,32.3 nM
